Reference: patent US20090326007A1, “Compounds and methods for modulating sir2 protein activity” (priority 2007, published 2009)
Entries after “also recorded” stand apart in the source; their conditions may differ. Where two headings read alike, the source gives them in different places. *1 amine or outer side, *2 acyl side, *3 side chain or, on linkers, in order; H or OH if unused. Where a SMILES comes first, the peptide text is derived from it. Bridges are numbered along the chain shown (N, C = ends). [ ]: non-standard residue; d: D form. X1 = CC(C)CCCCCCCCC[C@H](CC(=O)[*:1])O[*:2]

Tests used:
[1] = molecular target: T1, Hst2 (Saccharomyces cerevisiae, UniProt P53686); assay: SAR analysis, fluorigenic assay at 50 and 500 μM; format: biochemical; conditions: for inhibition of the Hst2 deacetylase reaction by metal ions (in words): FIG. 2, 50 μM and 500 μM compound
Source text: Structure Activity Relationship (SAR) Analysis.

[2] = molecular target: T1, Hst2; assay: IC50 determination, fluorigenic deacetylase assay, Hst2
Description: (§1) IC50 Determination. […] The dose-response curves were then fit to one-site competition or sigmoidal-dose response curves as appropriate in [sequence] PRISM (GraphPad Software, La Jolla, Calif.) and the IC50 was determined. Three independent IC50 measurements were performed for each compound and the average and standard deviation are reported.
The resulting deacetylase activity for the three experiments was averaged and reported as a percentage relative to control wells containing no inhibitor.

[3] = molecular target: T1, Hst2; assay: Competition assay (inhibition mode versus NAD+ and acetyl-lysine substrate); format: biochemical
Description: Competition Assay. […] The fluorigenic assay described above was used with a fixed enzyme concentration of 1 μM. When competition with NAD^+ was being tested, the FLUOR DE LYS-SIRT1 deacetylase substrate was held at a constant concentration of 100 μM and the NAD^+ was titrated from ⅓-5× KmNAD+ (5-80 μM). […] The inhibitors were titrated from ˜½-several times their estimated Ki as indicated. The reaction time was 15 minutes, and each condition was tested in duplicate. The Km, kcat and kcat/Km values were determined by direct fit of the data in SIGMAPLOT (Systat Software, Point Richmond, Calif.) to the Michealis-Menten equation. The Ki and Kis (the slope and intercept inhibition constants, respectively) and the competition type were also determined by a direct fit in SIGMAPLOT to both partial and full competitive, noncompetitive, uncompetitive and mixed competition models. Best-fit models were determined by several statistical methods including R^2, AICs and Sy.x as well as empirical evaluation of α and β values.
To determine the mechanism of inhibition of the compounds identified by HTS and to gain insight as to where these compounds may bind to the enzyme, inhibition modes were determined by varying each of the substrates with the other maintained at a fixed, saturating concentration (Table 11).

[4] = molecular target: T2, full-length human SIRT1 (Homo sapiens, UniProt Q96EB6); assay: IC50 determination, fluorigenic deacetylase assay, FL SIRT1
T2 sequence (Q96EB6 1-747): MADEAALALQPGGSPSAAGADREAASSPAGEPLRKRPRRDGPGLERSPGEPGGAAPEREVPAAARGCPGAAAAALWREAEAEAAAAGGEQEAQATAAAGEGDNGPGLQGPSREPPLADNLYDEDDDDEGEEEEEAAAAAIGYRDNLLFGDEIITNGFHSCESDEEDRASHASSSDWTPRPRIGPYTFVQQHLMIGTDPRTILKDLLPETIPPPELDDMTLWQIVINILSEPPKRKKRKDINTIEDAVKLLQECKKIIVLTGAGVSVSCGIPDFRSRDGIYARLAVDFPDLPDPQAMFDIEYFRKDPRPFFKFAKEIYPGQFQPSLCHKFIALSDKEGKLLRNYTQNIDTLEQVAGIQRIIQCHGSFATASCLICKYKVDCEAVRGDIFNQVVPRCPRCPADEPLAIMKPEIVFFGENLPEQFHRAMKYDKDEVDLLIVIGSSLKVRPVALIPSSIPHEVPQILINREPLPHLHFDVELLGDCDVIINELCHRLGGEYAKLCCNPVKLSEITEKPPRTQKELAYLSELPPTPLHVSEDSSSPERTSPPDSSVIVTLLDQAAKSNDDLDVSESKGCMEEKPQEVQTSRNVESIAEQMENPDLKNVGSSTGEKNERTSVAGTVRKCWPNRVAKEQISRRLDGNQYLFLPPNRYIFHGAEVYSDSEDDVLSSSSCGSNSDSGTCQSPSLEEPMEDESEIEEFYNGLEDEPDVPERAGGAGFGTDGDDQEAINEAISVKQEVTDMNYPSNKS
Description: Cells were harvested and lysed by sonication in buffer containing 50 mM Tris, pH 7.5, 200 mM NaCl, 5 mM imidizole, 10 mM β-mercaptoethanol (BME) and 0.1 mg/mL PMSF. Soluble FL SIRT1 was purified by Ni-NTA (Qiagen, Valencia, Calif.) in a buffer containing 50 mM Tris, pH 7.5, 300 mM NaCl, 10 mM BME, 5% glycerol and 30-600 mM imidizole followed by SUPERDEX-200 gel filtration in buffer containing 50 mM Tris, pH 7.5, 150 mM NaCl, and 10 mM BME. FL SIRT1 eluted between the 670 kDa and 158 kDa globular protein standards. Since SIRT1 is known to aggregate after several days at 4° C., the protein was aliquoted and frozen at −80° C. for use in fluorigenic assays.
as §1

[5] = molecular target: T3, human SIRT2 (Homo sapiens, UniProt Q8IXJ6); assay: Inhibition assay against human SIRT2 (fluorigenic); conditions: for inhibitory activity against human SIRT2 (in words): 50 or 100 μM compound; for remaining activity at 50 µM: read-out: percent of residual enzyme activity, SIRT2
T3 sequence (Q8IXJ6 1-352 isoform Q8IXJ6-2): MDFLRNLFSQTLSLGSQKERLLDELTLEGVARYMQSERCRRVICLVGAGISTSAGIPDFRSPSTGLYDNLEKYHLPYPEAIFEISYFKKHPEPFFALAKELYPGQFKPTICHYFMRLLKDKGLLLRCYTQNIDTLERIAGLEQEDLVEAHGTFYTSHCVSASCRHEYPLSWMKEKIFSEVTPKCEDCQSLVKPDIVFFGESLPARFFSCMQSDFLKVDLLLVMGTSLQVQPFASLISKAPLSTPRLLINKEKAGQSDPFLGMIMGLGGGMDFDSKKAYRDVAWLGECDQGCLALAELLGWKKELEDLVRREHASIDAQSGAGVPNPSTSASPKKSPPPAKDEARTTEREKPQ
Description: (§2) Human recombinant SIRT3 was purchased from Enzo Life Sciences.
(§3) Inhibition Assay Against Human SIRT2 and SIRT3. […] Two independent measurements were performed for each compound and the average and standard deviation are reported.

[6] = molecular target: T4, human SIRT3 (Homo sapiens, UniProt Q9NTG7); assay: Inhibition assay against human SIRT3 (fluorigenic); conditions: for remaining activity at 50 µM: read-out: percent of residual enzyme activity, SIRT3
T4 sequence (Q9NTG7 1-399): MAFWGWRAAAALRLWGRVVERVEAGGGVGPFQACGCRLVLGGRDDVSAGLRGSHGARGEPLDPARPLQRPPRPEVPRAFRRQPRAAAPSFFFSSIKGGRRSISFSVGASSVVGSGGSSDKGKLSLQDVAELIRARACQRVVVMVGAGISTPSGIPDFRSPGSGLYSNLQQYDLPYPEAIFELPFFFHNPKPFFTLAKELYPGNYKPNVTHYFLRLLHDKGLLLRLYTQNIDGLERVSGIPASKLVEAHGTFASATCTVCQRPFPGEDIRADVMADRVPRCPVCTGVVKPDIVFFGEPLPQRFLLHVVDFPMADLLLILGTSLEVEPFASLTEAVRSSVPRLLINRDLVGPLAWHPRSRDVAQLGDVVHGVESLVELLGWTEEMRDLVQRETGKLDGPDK
Description: as §2, §3

[7] = substrate NAD+ varied, acetyl-lysine substrate 100 μM
[8] = substrate acetyl-lysine varied, NAD+ 160 μM
[9] = substrate NAD+ varied, read-out: Ki
[10] = substrate acetyl-lysine varied, read-out: Ki
[11] = read-out: Hst2 IC50, Table 5, 160 μM NAD+, 100 μM substrate, 1 μM Hst2, 15 min
[12] = read-out: SIRT1 IC50, Table 5, 240 μM NAD+, 200 μM substrate, 1 μM FL SIRT1, 15 min
[13] = 50 μM compound, relative to control without inhibitor

T1 sequence (P53686 1-294): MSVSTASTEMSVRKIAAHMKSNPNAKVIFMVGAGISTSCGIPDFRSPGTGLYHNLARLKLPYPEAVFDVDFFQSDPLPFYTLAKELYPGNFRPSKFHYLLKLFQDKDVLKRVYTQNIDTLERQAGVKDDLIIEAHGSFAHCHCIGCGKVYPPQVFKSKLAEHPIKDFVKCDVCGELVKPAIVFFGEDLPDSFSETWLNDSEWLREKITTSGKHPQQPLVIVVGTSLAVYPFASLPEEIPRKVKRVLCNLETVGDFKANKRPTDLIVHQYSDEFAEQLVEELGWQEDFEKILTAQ

[Ca+2] [Ca^2+]
inhibition of the Hst2 deacetylase reaction by metal ions (in words) [1]: are not

O=c1[nH]c(=S)[nH]c(-c2ccccc2)c1Cc1c(O)ccc2ccccc12 [Cambinol (4), Cambinol, reference compound]
IC50 [2]: > 1000 µM

[Cd+2] [Cd^2+]
inhibition of the Hst2 deacetylase reaction by metal ions (in words) [1]: inhibitors

[Co+2] [Co^2+]
inhibition of the Hst2 deacetylase reaction by metal ions (in words) [1]: inhibitors

CC(=O)[O][Cd][O]C(C)=O [Compound 11a, cadmium acetate]
IC50 [2]: 1 ± 0.2 µM
IC50 values (range in words) ([2]; Table 5): sub-micromolar

S=c1ccccn1[O][Zn][O]n1ccccc1=S [Compound 11b, zinc pyrithione]
Ki ([3]; Ki, substrate NAD+ varied): 0.26 ± 0.08 µM
Ki ([3]; Ki, substrate acetyl-lysine varied): 0.7 ± 0.1 µM
kcat ([3]; substrate NAD+ varied): 0.0145 ± 0.00083 s⁻¹
Inhibition Mechanism [3, 7]: fully mixed
kcat ([3]; substrate acetyl-lysine varied): 0.0217 ± 0.0033 s⁻¹
Inhibition Mechanism [3, 8]: fully non-competitive; also recorded: NC (full)
α (mixed inhibition model) ([3]; with respect to NAD+): 2.2
IC50 [2]: 0.65 ± 0.05 µM
IC50 values (range in words) [2]: sub-micromolar
IC50 [4]: 2.7 ± 0.2 µM

CCc1ccc(OCCCC(=O)Oc2ccc3c(c2)oc(=O)c2ccccc23)cc1 [Compound 12a, 4-(4-Ethyl-phenoxy)-butyric acid 6-oxo-6H-benzo[c]chromen-3-yl ester]
kcat ([3]; substrate NAD+ varied): 0.025 ± 0.005 s⁻¹
Inhibition Mechanism [3, 7]: fully non-competitive; also recorded: NC (full)
Ki [3, 9]: 1.2 ± 0.2 µM
kcat ([3]; substrate acetyl-lysine varied): 0.0163 ± 0.00067 s⁻¹
Inhibition Mechanism [3, 8]: partial non-competitive
Ki [3, 10]: 6.3 ± 1.7 µM
inhibitory activity against human SIRT2 (in words) [5]: potent inhibitor
remaining activity at 50 µM [5]: 2.4 ± 0.3%
remaining activity at 50 µM [6]: 89 ± 3.3%
activity at 50 µM ([1]; Table 8, 50 μM compound, relative to control): < 1%
activity at 500 µM ([1]; Table 8, 500 μM compound, relative to control, read-out: % Activity 500): < 1%
IC50 values (range in words) ([2]; Table 5): low micromolar
IC50 [2, 11]: 6.5 ± 1.3 µM
IC50 [4, 12]: 6 ± 0.4 µM

O=C(O)CCN1Cc2ccccc2C1=O [Compound 13a, 3-(1-Oxo-1,3-dihydro-isoindol-2-yl)-propionic acid]
kcat ([3]; substrate NAD+ varied): 0.0122 ± 0.00217 s⁻¹
Inhibition Mechanism [3, 7]: fully non-competitive; also recorded: NC (full)
Ki [3, 9]: 30 ± 6 µM
kcat ([3]; substrate acetyl-lysine varied): 0.0167 ± 0.0017 s⁻¹
Inhibition Mechanism [3, 8]: fully non-competitive; also recorded: NC (full)
Ki [3, 10]: 39 ± 7 µM
inhibitory activity against human SIRT2 (in words) [5]: only weak inhibitory activity
remaining activity at 50 µM [5]: 89 ± 1.8%
inhibitory activity against human SIRT3 (in words) ([6]; 50 or 100 μM compound): only weak inhibitory activity
remaining activity at 50 µM [6]: 91 ± 4.3%
IC50 values (range in words) ([2]; Table 5): low micromolar
IC50 [4, 12]: 80 ± 5 µM

C[S+]([O-])CCC(C(=O)O)N1C(=O)c2ccccc2C1=O (centres unmarked) [Compound 0032]
IC50 ([2]; Table 10, Hst2): No Inh.

CC(C)C(=O)CCN1C(=O)c2ccccc2C1=O [Compound 04265]
IC50 ([2]; Table 10, Hst2): No Inh.

O=C(O)CCN1C(=O)c2cc(Cl)c(Cl)cc2C1=O [Compound 39008]
IC50 ([2]; Table 10, Hst2): No Inh.

Nc1ccc2c(c1)C(=O)N(CCC(=O)O)C2 [Compound 42071]
IC50 ([2]; Table 10, Hst2): No Inh.

O=C(O)CCN1C(=O)c2ccc(-c3nc4ccccc4c(=O)o3)cc2C1=O [Compound 47054]
IC50 ([2]; Table 10, Hst2): No Inh.

O=C1c2ccccc2C(=O)N1CCBr [Compound 91032]
IC50 ([2]; Table 10, Hst2): No Inh.

O=C(O)CCCN1C(=O)c2ccccc2C1=O [Compound 427032]
IC50 ([2]; Table 10, Hst2): No Inh.

[Cu+] [Cu^1+]
inhibition of the Hst2 deacetylase reaction by metal ions (in words) [1]: inhibited Hst2 to similar extents

[Fe+2] [Fe^2+]
inhibition of the Hst2 deacetylase reaction by metal ions (in words) [1]: inhibited Hst2 to similar extents

[Hg+2] [Hg^2+]
inhibition of the Hst2 deacetylase reaction by metal ions (in words) [1]: inhibitors

[Mg+2] [Mg^2+]
inhibition of the Hst2 deacetylase reaction by metal ions (in words) [1]: are not

[Ni+2] [Ni^2+]
inhibition of the Hst2 deacetylase reaction by metal ions (in words) [1]: inhibitors

Cn1cc(C2=C(c3cn(CCCSC(=N)N)c4ccccc34)C(=O)NC2=O)c2ccccc21 [Ro 31-8220 (6), Ro 31-8220, reference compound]
IC50 [2, 11]: 20 ± 0.9 µM

CC(NC(=O)c1ccccc1/N=C/c1c(O)ccc2ccccc12)c1ccccc1 (centres unmarked) [Sirtinol (2), Sirtinol, reference compound]
IC50 [2, 11]: 48 ± 11 µM

O=C1CCc2c(ccc3ccccc23)O1 [Splitomycin (3), Splitomycin, reference compound]
IC50 [2, 11]: > 600 µM

Cc1ccc(C(=O)Nc2ccc(S(=O)(=O)O)c3cc(S(=O)(=O)O)cc(S(=O)(=O)O)c23)cc1NC(=O)c1cccc(NC(=O)Nc2cccc(C(=O)Nc3cc(C(=O)Nc4ccc(S(=O)(=O)O)c5cc(S(=O)(=O)O)cc(S(=O)(=O)O)c45)ccc3C)c2)c1 [Suramin (8), Suramin, reference compound]
IC50 [2, 11]: 240 ± 70 µM

CC(C)CCCCCCCCC[C@@H]1CC(=O)N[C@@H](CCC(=O)O)C(=O)N[C@@H](CC(C)C)C(=O)N[C@H](CC(C)C)C(=O)N[C@@H](C(C)C)C(=O)N[C@@H](CC(=O)O)C(=O)N[C@H](CC(C)C)C(=O)N[C@@H](CC(C)C)C(=O)O1 [Surfactin (7), Surfactin, reference compound] (EL[dL]VD[dL]L; linker N-C via X1)
IC50 [2]: > 700 µM
IC50 [4]: > 600 µM

CN(C)CCCCC(=O)Nc1ccc(NC(=S)NC(=O)c2ccc(C(C)(C)C)cc2)cc1 [Tenovin-6 (5), Tenovin-6, reference compound]
IC50 [2, 11]: > 600 µM

[Zn+2] [Zn^2+]
inhibition of the Hst2 deacetylase reaction by metal ions (in words) [1]: inhibitors

hexachlorophene [Compound 14a]
kcat ([3]; substrate NAD+ varied): 0.00933 ± 0.0013 s⁻¹
Inhibition Mechanism [3, 7]: fully non-competitive; also recorded: NC (full)
Ki [3, 9]: 3.9 ± 0.7 µM
kcat ([3]; substrate acetyl-lysine varied): 0.0222 ± 0.0015 s⁻¹
Inhibition Mechanism [3, 8]: fully mixed
Ki [3, 10]: 2.5 ± 1 µM
α (mixed inhibition model) ([3]; with respect to the acetyl-lysine substrate): 13.4
percent of residual enzyme activity, SIRT2 [5, 13]: 18.5 ± 0.8%
potency estimated from few doses ([5]; read-out: apparent IC50, SIRT2, estimated from single concentration): < 50 µM
percent of residual enzyme activity, SIRT3 [6, 13]: 39.5 ± 1.6%
potency estimated from few doses ([6]; read-out: apparent IC50, SIRT3, estimated from single concentration): < 50 µM
IC50 ([2]; Table 4, Hst2): 12.5 ± 0.6 µM
IC50 values (range in words) ([2]; Table 5): low micromolar
IC50 [2, 11]: 12.5 ± 0.6 µM
IC50 [4, 12]: 34 ± 10 µM
